Results published in patent publication US10787452B2 (Vertex Pharmaceuticals Incorporated, priority 2012, dated 2020).

System: HCT116 colorectal cancer cells
Assay: Cisplatin sensitization assay (96 h cell viability MTS);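 note: compound concentration needed to lower the Cisplatin-alone IC50 by a set fold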
Type: cell-based
Conditions: 96 h MTS, compound plus Cisplatin
How it was run: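 Viability is measured with MTS reagent, added after 96 h and developed for 1 h at 37° C. Beforehand, cells receive compound and cisplatin simultaneously in a concentration matrix of 2-fold serial dilutions starting at 10 μM final.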

| Structure (SMILES) | Cisplatin Sensitization Assay |
| --- | --- |
| N#CCc1cnc2c(C(=O)Nc3cnccc3N3CCCC3)c(N)nn2c1 [I-N-77, 2-amino-6-(cyanomethyl)-N-(4-(pyrrolidin-1-yl)pyridin-3-yl)pyrazolo[1,5-a]pyrimidine-3-carboxamide] | + (Compounds with a Cisplatin sensitization value >0.2 μM but <5 μM are marked with “+.”) |
| N#CCc1cnc2c(C(=O)Nc3cnccc3N3CCCCCC3)c(N)nn2c1 [I-N-79, 2-amino-N-(4-(azepan-1-yl)pyridin-3-yl)-6-(cyanomethyl)pyrazolo[1,5-a]pyrimidine-3-carboxamide] | ++ (Compounds with a Cisplatin sensitization value >0.02 μM but <0.2 μM are marked with “++.”) |
| CN1CCN(c2c(F)cncc2NC(=O)c2c(N)nn3cc(CC#N)cnc23)CC1 [I-N-80, 2-amino-6-(cyanomethyl)-N-(5-fluoro-4-(4-methylpiperazin-1-yl)pyridin-3-yl)pyrazolo[1,5-a]pyrimidine-3-carboxamide] | ++ (Compounds with a Cisplatin sensitization value >0.02 μM but <0.2 μM are marked with “++.”) |
| N#CCc1cnc2c(C(=O)Nc3cnccc3N3CCOCC3)c(N)nn2c1 [I-N-81, 2-amino-6-(cyanomethyl)-N-(4-morpholinopyridin-3-yl)pyrazolo[1,5-a]pyrimidine-3-carboxamide] | +++ (Compounds with a Cisplatin sensitization value of <0.02 μM are marked with “+++.”) |
| CN1CCN(c2ccncc2NC(=O)c2c(N)nn3cc(CC#N)cnc23)CC1 [I-N-82, 2-amino-6-(cyanomethyl)-N-(4-(4-methylpiperazin-1-yl)pyridin-3-yl)pyrazolo[1,5-a]pyrimidine-3-carboxamide] | ++ (Compounds with a Cisplatin sensitization value >0.02 μM but <0.2 μM are marked with “++.”) |
| N#CCc1cnc2c(C(=O)Nc3cnccc3N3CCC(O)CC3)c(N)nn2c1 [I-N-83, 2-amino-6-(cyanomethyl)-N-(4-(4-hydroxypiperidin-1-yl)pyridin-3-yl)pyrazolo[1,5-a]pyrimidine-3-carboxamide] | ++ (Compounds with a Cisplatin sensitization value >0.02 μM but <0.2 μM are marked with “++.”) |
| N#CCc1cnc2c(C(=O)Nc3cnccc3N3CCCCC3)c(N)nn2c1 [I-N-84, 2-amino-6-(cyanomethyl)-N-(4-(piperidin-1-yl)pyridin-3-yl)pyrazolo[1,5-a]pyrimidine-3-carboxamide] | +++ (Compounds with a Cisplatin sensitization value of <0.02 μM are marked with “+++.”) |
| CN1CCN(c2c(Cl)cncc2NC(=O)c2c(N)nn3cc(F)cnc23)CC1 [I-N-85, 2-amino-N-(5-chloro-4-(4-methylpiperazin-1-yl)pyridin-3-yl)-6-fluoropyrazolo[1,5-a]pyrimidine-3-carboxamide] | ++ (Compounds with a Cisplatin sensitization value >0.02 μM but <0.2 μM are marked with “++.”) |
| Nc1nn2cc(Cl)cnc2c1C(=O)Nc1cnccc1N1CCC(N)CC1 [I-N-86, 2-amino-N-(4-(4-aminopiperidin-1-yl)pyridin-3-yl)-6-chloropyrazolo[1,5-a]pyrimidine-3-carboxamide] | +++ (Compounds with a Cisplatin sensitization value of <0.02 μM are marked with “+++.”) |
| CNC1CCN(c2ccncc2NC(=O)c2c(N)nn3cc(Cl)cnc23)CC1 [I-N-87, 2-amino-6-chloro-N-(4-(4-(methylamino)piperidin-1-yl)pyridin-3-yl)pyrazolo[1,5-a]pyrimidine-3-carboxamide] | ++ (Compounds with a Cisplatin sensitization value >0.02 μM but <0.2 μM are marked with “++.”) |
| Nc1nn2cc(Cl)cnc2c1C(=O)Nc1cnccc1N1CCNCC1 [I-N-88, 2-amino-6-chloro-N-(4-(piperazin-1-yl)pyridin-3-yl)pyrazolo[1,5-a]pyrimidine-3-carboxamide] | ++ (Compounds with a Cisplatin sensitization value >0.02 μM but <0.2 μM are marked with “++.”) |
| N#CCc1cnc2c(C(=O)Nc3cnccc3N3CCNCC3)c(N)nn2c1 [I-N-89, 2-amino-6-(cyanomethyl)-N-(4-(piperazin-1-yl)pyridin-3-yl)pyrazolo[1,5-a]pyrimidine-3-carboxamide] | ++ (Compounds with a Cisplatin sensitization value >0.02 μM but <0.2 μM are marked with “++.”) |
| N#CCc1cnc2c(C(=O)Nc3cnccc3N3CCOC(CN)C3)c(N)nn2c1 (stereo not drawn) [I-N-90, 2-amino-N-(4-(2-(aminomethyl)morpholino)pyridin-3-yl)-6-(cyanomethyl)pyrazolo[1,5-a]pyrimidine-3-carboxamide] | + (Compounds with a Cisplatin sensitization value >0.2 μM but <5 μM are marked with “+.”) |
| NCC1CCN(c2ccncc2NC(=O)c2c(N)nn3cc(Cl)cnc23)CC1 [I-N-91, 2-amino-N-(4-(4-(aminomethyl)piperidin-1-yl)pyridin-3-yl)-6-chloropyrazolo[1,5-a]pyrimidine-3-carboxamide] | ++ (Compounds with a Cisplatin sensitization value >0.02 μM but <0.2 μM are marked with “++.”) |
| CN(C)C1CN(C2CCN(c3ccncc3NC(=O)c3c(N)nn4cc(Cl)cnc34)CC2)C1 [I-N-94, 2-amino-6-chloro-N-(4-(4-(3-(dimethylamino)azetidin-1-yl)piperidin-1-yl)pyridin-3-yl)pyrazolo[1,5-a]pyrimidine-3-carboxamide] | +++ (Compounds with a Cisplatin sensitization value of <0.02 μM are marked with “+++.”) |
| COC1CCN(C2CCN(c3ccncc3NC(=O)c3c(N)nn4cc(Cl)cnc34)CC2)C1 (stereo not drawn) [I-N-95, 2-amino-6-chloro-N-(4-(4-(3-methoxypyrrolidin-1-yl)piperidin-1-yl)pyridin-3-yl)pyrazolo[1,5-a]pyrimidine-3-carboxamide] | ++ (Compounds with a Cisplatin sensitization value >0.02 μM but <0.2 μM are marked with “++.”) |
| CN1CCN(C2CCN(c3ccncc3NC(=O)c3c(N)nn4cc(Cl)cnc34)CC2)CC1 [I-N-97, 2-amino-6-chloro-N-(4-(4-(4-methylpiperazin-1-yl)piperidin-1-yl)pyridin-3-yl)pyrazolo[1,5-a]pyrimidine-3-carboxamide] | +++ (Compounds with a Cisplatin sensitization value of <0.02 μM are marked with “+++.”) |
| Nc1nn2cc(Cl)cnc2c1C(=O)Nc1cnccc1N1CCC(N2CC[C@@H](F)C2)CC1 [I-N-98, (R)-2-amino-6-chloro-N-(4-(4-(3-fluoropyrrolidin-1-yl)piperidin-1-yl)pyridin-3-yl)pyrazolo[1,5-a]pyrimidine-3-carboxamide] | +++ (Compounds with a Cisplatin sensitization value of <0.02 μM are marked with “+++.”) |
| Nc1nn2cc(Cl)cnc2c1C(=O)Nc1cnccc1N1CCC(N2CCC3(COC3)C2)CC1 [I-N-99, N-(4-(4-(2-oxa-6-azaspiro[3.4]octan-6-yl)piperidin-1-yl)pyridin-3-yl)-2-amino-6-chloropyrazolo[1,5-a]pyrimidine-3-carboxamide] | +++ (Compounds with a Cisplatin sensitization value of <0.02 μM are marked with “+++.”) |
| Nc1nn2cc(Cl)cnc2c1C(=O)Nc1cnccc1N1CCC(N2CC[S+]([O-])CC2)CC1 [I-N-100, 2-amino-6-chloro-N-(4-(4-(1-oxidothiomorpholino)piperidin-1-yl)pyridin-3-yl)pyrazolo[1,5-a]pyrimidine-3-carboxamide] | ++ (Compounds with a Cisplatin sensitization value >0.02 μM but <0.2 μM are marked with “++.”) |
| Nc1nn2cc(Cl)cnc2c1C(=O)Nc1cnccc1N1CCC(N2CCn3cncc3C2)CC1 [I-N-101, 2-amino-6-chloro-N-(4-(4-(5,6-dihydroimidazo[1,5-a]pyrazin-7(8H)-yl)piperidin-1-yl)pyridin-3-yl)pyrazolo[1,5-a]pyrimidine-3-carboxamide] | ++ (Compounds with a Cisplatin sensitization value >0.02 μM but <0.2 μM are marked with “++.”) |
| Nc1nn2cc(Cl)cnc2c1C(=O)Nc1cnccc1N1CCC(N2CCn3ccnc3C2)CC1 [I-N-102, 2-amino-6-chloro-N-(4-(4-(5,6-dihydroimidazo[1,2-a]pyrazin-7(8H)-yl)piperidin-1-yl)pyridin-3-yl)pyrazolo[1,5-a]pyrimidine-3-carboxamide] | ++ (Compounds with a Cisplatin sensitization value >0.02 μM but <0.2 μM are marked with “++.”) |
| Nc1nn2cc(Cl)cnc2c1C(=O)Nc1cnccc1N1CCC(N2CCOCC2)CC1 [I-N-104, 2-amino-6-chloro-N-(4-(4-morpholinopiperidin-1-yl)pyridin-3-yl)pyrazolo[1,5-a]pyrimidine-3-carboxamide] | +++ (Compounds with a Cisplatin sensitization value of <0.02 μM are marked with “+++.”) |
| Nc1nn2cc(Cl)cnc2c1C(=O)Nc1cnccc1N1CCC(N2CCCC2)CC1 [I-N-105, 2-amino-6-chloro-N-(4-(4-(pyrrolidin-1-yl)piperidin-1-yl)pyridin-3-yl)pyrazolo[1,5-a]pyrimidine-3-carboxamide] | +++ (Compounds with a Cisplatin sensitization value of <0.02 μM are marked with “+++.”) |
| CN(C)C1CCN(C2CCN(c3ccncc3NC(=O)c3c(N)nn4cc(Cl)cnc34)CC2)C1 (stereo not drawn) [I-N-106, 2-amino-6-chloro-N-(4-(4-(3-(dimethylamino)pyrrolidin-1-yl)piperidin-1-yl)pyridin-3-yl)pyrazolo[1,5-a]pyrimidine-3-carboxamide] | +++ (Compounds with a Cisplatin sensitization value of <0.02 μM are marked with “+++.”) |
| COC1CN(C2CCN(c3ccncc3NC(=O)c3c(N)nn4cc(Cl)cnc34)CC2)C1 [I-N-107, 2-amino-6-chloro-N-(4-(4-(3-methoxyazetidin-1-yl)piperidin-1-yl)pyridin-3-yl)pyrazolo[1,5-a]pyrimidine-3-carboxamide] | +++ (Compounds with a Cisplatin sensitization value of <0.02 μM are marked with “+++.”) |
| Nc1nn2cc(Cl)cnc2c1C(=O)Nc1cnccc1N1CCC(N2CC(F)(F)C2)CC1 [I-N-108, 2-amino-6-chloro-N-(4-(4-(3,3-difluoroazetidin-1-yl)piperidin-1-yl)pyridin-3-yl)pyrazolo[1,5-a]pyrimidine-3-carboxamide] | +++ (Compounds with a Cisplatin sensitization value of <0.02 μM are marked with “+++.”) |
